In PubChem BioAssay (NCI):
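Dose response: 5 concentrations. Exposure: 48 h. Format: 96-well plates. Endpoint: linear interpolation; highest concentration if not reached. GI50: concentration for 50% inhibition of growth. TGI marks complete inhibition of growth.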

Experiments:
Test in all cases: growth of human tumour cells (NCI), 48 h
MALME-3M melanoma = test system: MALME-3M melanoma
A498 renal = test system: A498 renal
COLO 205 colon = test system: COLO 205 colon
EKVX NSCLC = test system: EKVX NSCLC
HCT-15 colon = test system: HCT-15 colon
OVCAR-5 ovarian = test system: OVCAR-5 ovarian
UACC-257 melanoma = test system: UACC-257 melanoma
UO-31 renal = test system: UO-31 renal
SK-MEL-5 melanoma = test system: SK-MEL-5 melanoma
CCRF-CEM leukemia = test system: CCRF-CEM leukemia
U251 CNS = test system: U251 CNS
CAKI-1 renal = test system: CAKI-1 renal
SF-539 CNS = test system: SF-539 CNS
SW-620 colon = test system: SW-620 colon
PC-3 prostate = test system: PC-3 prostate
HS 578T breast = test system: HS 578T breast
SK-OV-3 ovarian = test system: SK-OV-3 ovarian
DU-145 prostate = test system: DU-145 prostate
OVCAR-3 ovarian = test system: OVCAR-3 ovarian

## COc1ccc(-c2cc3[nH]nc(N)c3c(=O)o2)cc1
MALME-3M melanoma
  TGI: > 100 µM
A498 renal
  TGI: > 100 µM
COLO 205 colon
  TGI: > 100 µM
EKVX NSCLC
  TGI: > 100 µM
HCT-15 colon
  TGI: > 100 µM
OVCAR-5 ovarian
  TGI: > 100 µM
UACC-257 melanoma
  TGI: > 100 µM
UO-31 renal
  TGI: > 100 µM
SK-MEL-5 melanoma
  TGI: > 100 µM
CCRF-CEM leukemia
  TGI: > 100 µM
U251 CNS
  TGI: > 100 µM
CAKI-1 renal
  TGI: > 100 µM
SF-539 CNS
  TGI: > 100 µM
SW-620 colon
  TGI: > 100 µM

## Cc1ccc(S(=O)(=O)N2CCCSCC2)cc1
A498 renal
  TGI: > 100 µM
COLO 205 colon
  TGI: > 100 µM
HCT-15 colon
  TGI: > 100 µM
UACC-257 melanoma
  TGI: > 100 µM
UO-31 renal
  TGI: > 100 µM
PC-3 prostate
  TGI: > 100 µM
HS 578T breast
  TGI: > 100 µM
SK-MEL-5 melanoma
  TGI: > 100 µM
SK-OV-3 ovarian
  TGI: > 100 µM
CCRF-CEM leukemia
  TGI: > 100 µM
U251 CNS
  TGI: > 100 µM
DU-145 prostate
  TGI: > 100 µM
SW-620 colon
  TGI: > 100 µM

## CC1(C)OCC=CCO1
MALME-3M melanoma
  TGI: > 100 µM
COLO 205 colon
  TGI: > 100 µM
EKVX NSCLC
  TGI: > 100 µM
OVCAR-5 ovarian
  TGI: > 100 µM
UACC-257 melanoma
  TGI: > 100 µM
UO-31 renal
  TGI: > 100 µM
PC-3 prostate
  TGI: > 100 µM
HS 578T breast
  TGI: > 100 µM
SK-MEL-5 melanoma
  TGI: > 100 µM
OVCAR-3 ovarian
  TGI: > 100 µM
SK-OV-3 ovarian
  TGI: > 100 µM
CCRF-CEM leukemia
  TGI: > 100 µM
U251 CNS
  TGI: > 100 µM
CAKI-1 renal
  TGI: > 100 µM
DU-145 prostate
  TGI: > 100 µM
SF-539 CNS
  TGI: > 100 µM
SW-620 colon
  TGI: > 100 µM

## Oc1ccc(-c2nc3ccc(Cl)cc3s2)cc1
MALME-3M melanoma
  TGI: 36 µM
A498 renal
  TGI: 35.2 µM
COLO 205 colon
  TGI: 32.3 µM
EKVX NSCLC
  TGI: 31 µM
HCT-15 colon
  TGI: 31.1 µM
OVCAR-5 ovarian
  TGI: 33 µM
UACC-257 melanoma
  TGI: 34.4 µM
UO-31 renal
  TGI: 27.8 µM
PC-3 prostate
  TGI: 37.5 µM
SK-MEL-5 melanoma
  TGI: 35.7 µM
OVCAR-3 ovarian
  TGI: 40.7 µM
SK-OV-3 ovarian
  TGI: 36.4 µM
CCRF-CEM leukemia
  TGI: 24.4 µM
U251 CNS
  TGI: 46.9 µM
CAKI-1 renal
  TGI: 36.5 µM
DU-145 prostate
  TGI: 31.1 µM
SF-539 CNS
  TGI: 34.7 µM
SW-620 colon
  TGI: 39.3 µM

## CC1=C(C)Cc2c(O)ccc(O)c2C1
MALME-3M melanoma
  TGI: 31.6 µM
A498 renal
  TGI: > 100 µM
COLO 205 colon
  TGI: 34.7 µM
EKVX NSCLC
  TGI: 29.5 µM
HCT-15 colon
  TGI: 33.1 µM
OVCAR-5 ovarian
  TGI: 38.6 µM
UACC-257 melanoma
  TGI: 32.2 µM
UO-31 renal
  TGI: 30.6 µM
PC-3 prostate
  TGI: 32.1 µM
HS 578T breast
  TGI: 33.6 µM
SK-MEL-5 melanoma
  TGI: 27.7 µM
OVCAR-3 ovarian
  TGI: 43.2 µM
SK-OV-3 ovarian
  TGI: > 100 µM
CCRF-CEM leukemia
  TGI: 16.2 µM
U251 CNS
  TGI: 34.2 µM
CAKI-1 renal
  TGI: 34.1 µM
DU-145 prostate
  TGI: 39.7 µM
SF-539 CNS
  TGI: 35.1 µM
SW-620 colon
  TGI: 37.6 µM

## O=C1C(Cl)=C(Nc2ccc(S(=O)(=O)Nc3ccccn3)cc2)C(=O)c2ccccc21
MALME-3M melanoma
  TGI: 7.6 µM
A498 renal
  TGI: 45.1 µM
COLO 205 colon
  TGI: 27.8 µM
EKVX NSCLC
  TGI: 31.7 µM
HCT-15 colon
  TGI: 23.2 µM
OVCAR-5 ovarian
  TGI: > 46.9 µM
UACC-257 melanoma
  TGI: 10.3 µM
UO-31 renal
  TGI: 29 µM
PC-3 prostate
  TGI: 27 µM
HS 578T breast
  TGI: 48 µM
SK-MEL-5 melanoma
  TGI: 11.4 µM
OVCAR-3 ovarian
  TGI: 15.6 µM
SK-OV-3 ovarian
  TGI: 43 µM
CCRF-CEM leukemia
  TGI: > 25.5 µM
U251 CNS
  TGI: 19.3 µM
CAKI-1 renal
  TGI: > 52.1 µM
DU-145 prostate
  TGI: 25.9 µM
SF-539 CNS
  TGI: 10.3 µM
SW-620 colon
  TGI: > 73.5 µM

## CC(=O)C1CC[C@@H]2[C@H](CC[C@]3(C)[C@@H](O)CC[C@@H]23)[C@H]1C(=O)O (some centres not stated)
MALME-3M melanoma
  TGI: > 100 µM
A498 renal
  TGI: > 100 µM
COLO 205 colon
  TGI: > 100 µM
EKVX NSCLC
  TGI: > 100 µM
HCT-15 colon
  TGI: > 100 µM
OVCAR-5 ovarian
  TGI: > 100 µM
UACC-257 melanoma
  TGI: > 100 µM
UO-31 renal
  TGI: > 100 µM
PC-3 prostate
  TGI: > 100 µM
HS 578T breast
  TGI: > 100 µM
SK-MEL-5 melanoma
  TGI: > 100 µM
OVCAR-3 ovarian
  TGI: > 100 µM
SK-OV-3 ovarian
  TGI: > 100 µM
CCRF-CEM leukemia
  TGI: > 100 µM
U251 CNS
  TGI: > 100 µM
CAKI-1 renal
  TGI: > 100 µM
SF-539 CNS
  TGI: > 100 µM
SW-620 colon
  TGI: > 100 µM

## COc1cc(C(O)(CC#N)c2cc3c(cc2Br)OCO3)cc(OC)c1OC (configuration not stated)
COLO 205 colon
  TGI: > 100 µM
EKVX NSCLC
  TGI: > 100 µM
OVCAR-5 ovarian
  TGI: > 100 µM
UACC-257 melanoma
  TGI: > 100 µM
UO-31 renal
  TGI: > 100 µM
PC-3 prostate
  TGI: > 100 µM
OVCAR-3 ovarian
  TGI: > 100 µM
SK-OV-3 ovarian
  TGI: > 100 µM
CCRF-CEM leukemia
  TGI: > 100 µM
U251 CNS
  TGI: > 100 µM
CAKI-1 renal
  TGI: 75.8 µM
DU-145 prostate
  TGI: > 100 µM
SF-539 CNS
  TGI: 34.9 µM
SW-620 colon
  TGI: > 100 µM

## N/C(=N\N=C\c1ccc2c(c1)OCCO2)NO
A498 renal
  TGI: > 100 µM
COLO 205 colon
  TGI: 38.5 µM
EKVX NSCLC
  TGI: > 100 µM
HCT-15 colon
  TGI: > 100 µM
OVCAR-5 ovarian
  TGI: > 40.8 µM
UACC-257 melanoma
  TGI: > 61.2 µM
UO-31 renal
  TGI: > 53 µM
SK-MEL-5 melanoma
  TGI: 22.4 µM
OVCAR-3 ovarian
  TGI: 16.2 µM
SK-OV-3 ovarian
  TGI: > 100 µM
CCRF-CEM leukemia
  TGI: > 100 µM
U251 CNS
  TGI: > 100 µM
CAKI-1 renal
  TGI: > 100 µM
SF-539 CNS
  TGI: > 81.1 µM
SW-620 colon
  TGI: > 100 µM

## O=C1c2ccccc2C(=O)N1CC(O)COc1cccc2ccccc12 (configuration not stated)
MALME-3M melanoma
  TGI: > 100 µM
A498 renal
  TGI: > 100 µM
COLO 205 colon
  TGI: > 100 µM
EKVX NSCLC
  TGI: > 100 µM
HCT-15 colon
  TGI: > 100 µM
OVCAR-5 ovarian
  TGI: > 100 µM
UACC-257 melanoma
  TGI: > 100 µM
UO-31 renal
  TGI: > 100 µM
PC-3 prostate
  TGI: > 100 µM
SK-MEL-5 melanoma
  TGI: > 100 µM
OVCAR-3 ovarian
  TGI: > 100 µM
SK-OV-3 ovarian
  TGI: > 100 µM
CCRF-CEM leukemia
  TGI: > 100 µM
U251 CNS
  TGI: > 100 µM
CAKI-1 renal
  TGI: > 100 µM
DU-145 prostate
  TGI: > 100 µM
SW-620 colon
  TGI: > 100 µM

## NC(=S)N/N=C\c1nccc2ccccc12
MALME-3M melanoma
  TGI: > 23.1 µM
A498 renal
  TGI: 2.39 µM
COLO 205 colon
  TGI: 2.89 µM
EKVX NSCLC
  TGI: 2.21 µM
HCT-15 colon
  TGI: > 100 µM
OVCAR-5 ovarian
  GI50: 0.469 µM
  TGI: > 100 µM
UACC-257 melanoma
  TGI: > 58.6 µM
UO-31 renal
  TGI: 3.63 µM
PC-3 prostate
  TGI: > 100 µM
HS 578T breast
  TGI: > 100 µM
SK-MEL-5 melanoma
  TGI: 3.7 µM
OVCAR-3 ovarian
  TGI: > 100 µM
SK-OV-3 ovarian
  TGI: 0.681 µM
U251 CNS
  TGI: > 58.6 µM
DU-145 prostate
  TGI: > 100 µM
SF-539 CNS
  TGI: 0.455 µM
SW-620 colon
  TGI: > 100 µM
